Measured values as given in ChEMBL document CHEMBL5346873, “Strategic modification of low-activity natural antimicrobial peptides confers antibacterial potential in vitro and in vivo” (Eur J Med Chem, 2023).
Calls of active or inactive are those of the source. No cut-off for these calls is given here.

Experiments:
[1] = tested on: Streptococcus iniae; test: Synergistic antibacterial activity against Streptococcus iniae assessed as fractional inhibitory concentration in presence of doxycycline by checkerboard microtiter plate assay; type: functional
[2] = tested on: Streptococcus iniae; test: Antibacterial activity against Streptococcus iniae incubated for 16 to 20 hrs; type: functional; conditions: time 16-20 hrs
[3] = tested on: Enterococcus faecium; test: Antibacterial activity against Enterococcus faecium incubated for 16 to 20 hrs; type: functional; conditions: time 16-20 hrs
[4] = tested on: Escherichia coli; test: Synergistic antibacterial activity against Escherichia coli assessed as meropenem MIC by checkerboard microtiter plate assay; type: functional
[5] = tested on: Vibrio vulnificus; test: Antibiofilm activity against Vibrio vulnificus V2 assessed as inhibition of biofilm formation at 25 to 100 ug/ml incubated for 24 hrs by crystal violet staining based assay; type: functional, organism-based; conditions: dose 25-100 µg/ml
[6] = tested on: Klebsiella oxytoca; test: Bactericidal activity against Klebsiella oxytoca incubated overnight; type: functional
[7] = tested on: Staphylococcus aureus; test: Bactericidal activity against Staphylococcus aureus incubated for overnight; type: functional
[8] = tested on: Vibrio vulnificus; test: Bactericidal activity against Vibrio vulnificus V3 incubated overnight; type: functional
[9] = tested on: Klebsiella pneumoniae; test: Bactericidal activity against NDM Klebsiella pneumoniae incubated overnight; type: functional
[10] = tested on: Vibrio vulnificus; test: Antibacterial activity against Vibrio vulnificus V3 incubated for 16 to 20 hrs; type: functional; conditions: time 16-20 hrs
[11] = Cytotoxicity against human HaCaT cells incubated for 24 hrs by LDH assay; type: toxicity, cell-based; conditions: read-out: LD50
[12] = tested on: Acinetobacter baumannii; test: Synergistic antibacterial activity against Acinetobacter baumannii assessed as fractional inhibitory concentration in presence of doxycycline by checkerboard microtiter plate assay; type: functional
[13] = tested on: Salmonella enterica; test: Bactericidal activity against Salmonella enterica incubated overnight; type: functional
[14] = tested on: Vibrio alginolyticus; test: Bactericidal activity against Vibrio alginolyticus incubated overnight; type: functional
[15] = tested on: Staphylococcus haemolyticus; test: Antibacterial activity against Staphylococcus haemolyticus incubated for 16 to 20 hrs; type: functional; conditions: time 16-20 hrs
[16] = tested on: Staphylococcus haemolyticus; test: Bactericidal activity against Staphylococcus haemolyticus incubated overnight; type: functional
[17] = tested on: Pseudomonas aeruginosa; test: Antibacterial activity against Pseudomonas aeruginosa incubated for 16 to 20 hrs; type: functional; conditions: time 16-20 hrs
[18] = tested on: Acinetobacter baumannii; test: Additive antibacterial activity against Acinetobacter baumannii assessed as fractional inhibitory concentration in presence of meropenem by checkerboard microtiter plate assay; type: functional
[19] = tested on: Vibrio vulnificus; test: Antibacterial activity against Vibrio vulnificus 204 assessed as induction of resistance development by measuring fold increase in MIC measured after 15 passages; type: functional
[20] = tested on: Acinetobacter baumannii; test: Synergistic antibacterial activity against Acinetobacter baumannii in presence of doxycycline by checkerboard microtiter plate assay; type: functional
[21] = tested on: Streptococcus agalactiae; test: Synergistic antibacterial activity against Streptococcus agalactiae assessed as doxycycline MIC by checkerboard microtiter plate assay; type: functional
[22] = tested on: Vibrio vulnificus; test: Synergistic antibacterial activity against Vibrio vulnificus assessed as fractional inhibitory concentration in presence of doxycycline by checkerboard microtiter plate assay; type: functional
[23] = tested on: Salmonella typhimurium; test: Antibacterial activity against Salmonella typhimurium incubated for 16 to 20 hrs; type: functional, Salmonella enterica subsp. enterica serovar Typhimurium; conditions: Salmonella enterica; time 16-20 hrs
[24] = tested on: Vibrio vulnificus; test: Antibiofilm activity against Vibrio vulnificus V3 assessed as inhibition of biofilm formation at 25 ug/ml incubated for 24 hrs by crystal violet staining based assay; type: functional, organism-based; conditions: dose 25.0 µg/ml
[25] = tested on: Vibrio vulnificus; test: Antibacterial activity against Vibrio vulnificus in presence of 1 to 10 ug/ml pepsin; type: functional, organism-based
[26] = tested on: Vibrio vulnificus; test: Synergistic antibacterial activity against Vibrio vulnificus in presence of meropenem by checkerboard microtiter plate assay; type: functional
[27] = tested on: Vibrio vulnificus; test: Antibacterial activity against Vibrio vulnificus V2 incubated for 16 to 20 hrs; type: functional; conditions: time 16-20 hrs
[28] = tested on: Klebsiella pneumoniae; test: Antibacterial activity against Klebsiella pneumoniae expressing NDM-1 in presence of human serum; type: functional, organism-based
[29] = tested on: Vibrio vulnificus; test: Antibiofilm activity against Vibrio vulnificus V3 assessed as inhibition of biofilm formation at 50 to 100 ug/ml incubated for 24 hrs by crystal violet staining based assay; type: functional, organism-based; conditions: dose 50-100 µg/ml
[30] = tested on: Vibrio vulnificus; test: Antibacterial activity against Vibrio vulnificus in presence of 1 to 10 ug/ml trypsin; type: functional, organism-based
[31] = tested on: Klebsiella pneumoniae; test: Synergistic antibacterial activity against Klebsiella pneumoniae expressing NDM1 in presence of doxycycline by checkerboard microtiter plate assay; type: functional
[32] = tested on: Salmonella enterica; test: Antibacterial activity against Salmonella enterica incubated for 16 to 20 hrs; type: functional; conditions: time 16-20 hrs
[33] = tested on: Acinetobacter baumannii; test: Antibacterial activity against Acinetobacter baumannii; type: functional
[34] = tested on: Vibrio vulnificus; test: Antibacterial activity against Vibrio vulnificus in presence of 10 ug/ml proteinase K; type: functional, organism-based
[35] = tested on: Klebsiella aerogenes; test: Antibacterial activity against Enterobacter aerogenes incubated for 16 to 20 hrs; type: functional; conditions: time 16-20 hrs
[36] = tested on: Vibrio vulnificus; test: Synergistic antibacterial activity against Vibrio vulnificus assessed as meropenem MIC by checkerboard microtiter plate assay; type: functional
[37] = tested on: Vibrio vulnificus; test: Antibiofilm activity against Vibrio vulnificus V1 assessed as inhibition of biofilm formation at 25 ug/ml incubated for 24 hrs by crystal violet staining based assay; type: functional, organism-based; conditions: dose 25.0 µg/ml
[38] = tested on: Klebsiella pneumoniae; test: Synergistic antibacterial activity against Klebsiella pneumoniae expressing NDM1 assessed as doxycycline MIC by checkerboard microtiter plate assay; type: functional
[39] = tested on: Streptococcus agalactiae; test: Antibacterial activity against Streptococcus agalactiae incubated for 16 to 20 hrs; type: functional; conditions: time 16-20 hrs
[40] = tested on: Vibrio vulnificus; test: Antibacterial activity against Vibrio vulnificus in presence of proteinase K; type: functional, organism-based
[41] = tested on: Streptococcus iniae; test: Additive antibacterial activity against Streptococcus iniae assessed as fractional inhibitory concentration in presence of meropenem by checkerboard microtiter plate assay; type: functional
[42] = tested on: Enterococcus faecalis; test: Antibacterial activity against Enterococcus faecalis incubated for 16 to 20 hrs; type: functional; conditions: time 16-20 hrs
[43] = tested on: Klebsiella aerogenes; test: Bactericidal activity against Enterobacter aerogenes incubated overnight; type: functional
[44] = tested on: Klebsiella aerogenes; test: Synergistic antibacterial activity against Enterobacter aerogenes assessed as meropenem MIC by checkerboard microtiter plate assay; type: functional
[45] = tested on: Aeromonas hydrophila; test: Bactericidal activity against Aeromonas hydrophila incubated overnight; type: functional
[46] = tested on: Vibrio vulnificus; test: Antibiofilm activity against Vibrio vulnificus 204 assessed as inhibition of biofilm formation at 50 to 100 ug/ml incubated for 24 hrs by crystal violet staining based assay; type: functional, organism-based; conditions: dose 50-100 µg/ml
[47] = tested on: Acinetobacter baumannii; test: Additive antibacterial activity against Acinetobacter baumannii assessed as meropenem MIC by checkerboard microtiter plate assay; type: functional
[48] = tested on: Vibrio vulnificus; test: Synergistic antibacterial activity against Vibrio vulnificus assessed as fractional inhibitory concentration in presence of meropenem by checkerboard microtiter plate assay; type: functional
[49] = tested on: Vibrio vulnificus; test: Antibacterial activity against Vibrio vulnificus treated with preheated compounds; type: functional, organism-based
[50] = tested on: Vibrio harveyi; test: Antibacterial activity against Vibrio harveyi incubated for 16 to 20 hrs; type: functional; conditions: time 16-20 hrs
[51] = tested on: Salmonella typhimurium; test: Bactericidal activity against Salmonella typhimurium incubated overnight; type: functional, Salmonella enterica subsp. enterica serovar Typhimurium; conditions: Salmonella enterica
[52] = tested on: Cell membrane; test: Induction of membrane deformation in Vibrio vulnificus at 1 to 2 times MIC incubated for 30 mins by SEM analysis; type: subcellular
[53] = tested on: Streptococcus iniae; test: Bactericidal activity against Streptococcus iniae incubated overnight; type: functional
[54] = tested on: Streptococcus iniae; test: Additive antibacterial activity against Streptococcus iniae in presence of meropenem by checkerboard microtiter plate assay; type: functional
[55] = tested on: Klebsiella aerogenes; test: Synergistic antibacterial activity against Enterobacter aerogenes in presence of meropenem by checkerboard microtiter plate assay; type: functional
[56] = tested on: Escherichia coli; test: Antibacterial activity against Escherichia coli incubated for 16 to 20 hrs; type: functional; conditions: time 16-20 hrs
[57] = tested on: Vibrio vulnificus; test: Bactericidal activity against Vibrio vulnificus V2 incubated overnight; type: functional
[58] = tested on: Streptococcus iniae; test: Additive antibacterial activity against Streptococcus iniae assessed as meropenem MIC by checkerboard microtiter plate assay; type: functional
[59] = tested on: Vibrio vulnificus; test: Antibacterial activity against Vibrio vulnificus in presence of 0.1 ug/ml pepsin; type: functional, organism-based
[60] = tested on: Cell membrane; test: Induction of outer membrane lysis in Vibrio vulnificus at 100 ug/ml by NPN-dye based fluorescence analysis; type: subcellular; conditions: dose 100.0 µg/ml

With H-KKCIAKAILKKAKKLLKKLVNP-OH the FIC [1] was 0.04, the MIC [2] was under 1.56 µg/mL and the MIC [3] was over 100 µg/mL. The MIC [4] was 0.001 µg/mL, the Activity [5] was “Active” and the MBC [6] was 50 µg/mL. The MBC [7] was over 100 µg/mL, the MBC [8] was 12.5 µg/mL and the MBC [9] was 25 µg/mL. The MIC [10] was 12.5 µg/mL, the CC50 at 24 h [11] was over 100 µg/mL and the FIC [12] was 0.07. The MBC [13] was 12.5 µg/mL, the MBC [14] was 6.25 µg/mL and the MIC [15] was under 1.56 µg/mL. The MBC [16] was under 1.56 µg/mL, the MIC [17] was 25 µg/mL and the FIC [18] was 0.51. The “fold change (FC)” value [19] was under 2, the MIC [20] was 0.048 µg/mL and the MIC [21] was 0.006 µg/mL. The FIC [22] was 0.14, the MIC [23] was 50 µg/mL and the Activity [24] was “inactive”. The Activity [25] was “Active”, the MIC [26] was 0.195 µg/mL and the MIC [27] was 12.5 µg/mL. For the same substance, the Activity [28] was “Active”, the Activity [29] was “Active” and the Activity [30] was “Active”. It also gave an MIC [31] of 3.12 µg/mL, an MIC [32] of 12.5 µg/mL and an MIC [33] of 3.12 µg/mL. The Activity [34] was “inactive”, the MIC [35] was 12.5 µg/mL and the MIC [36] was 0.003 µg/mL. The Activity [37] was “inactive”, the MIC [38] was 3.12 µg/mL and the MIC [39] was 3.12 µg/mL. For the same substance, the Activity [40] was “Active”, the FIC [41] was 0.51 and the MIC [42] was 25 µg/mL. For the same substance, the MBC [43] was 12.5 µg/mL, the MIC [44] was 0.003 µg/mL and the MBC [45] was over 100 µg/mL. The Activity [46] was “Active”, the MIC [47] was 0.195 µg/mL and the FIC [48] was 0.14. For the same substance, the Activity [49] was “Active”, the MIC [50] was 25 µg/mL and the MBC [51] was 100 µg/mL. The Activity [52] was “Active”, the MBC [53] was under 1.56 µg/mL and the MIC [54] was 0.048 µg/mL. The MIC [55] was 0.097 µg/mL, the MIC [56] was 12.5 µg/mL and the MBC [57] was 12.5 µg/mL. The MIC [58] was 0.195 µg/mL, the Activity [59] was “Active” and the Activity [60] was “Active”.
